# Results published in ChEMBL document CHEMBL1201862, “PubChem BioAssay data set” (2004).
#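 These data come from cells grown in 96-well plates and exposed to compound for 48 hours at five concentrations. GI50 marks 50% less growth.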 Active and inactive are the calls of the source. Cut-off read from the data, not from the text of the source: active = GI50 up to about 1.1 µM and inactive = higher.
# Key:
# Assay in all cases: growth of human tumour cells (NCI), 48 h
# [1] = test system: ACHN
# [2] = test system: SF-295
# [3] = test system: SR
# [4] = test system: PC-3
# [5] = test system: M14
# [6] = test system: HCT-15
# [7] = test system: SNB-19
# [8] = test system: UACC-62
# [9] = test system: MDA-MB-435
# [10] = test system: T47D
# [11] = test system: A549
# [12] = test system: SNB-75
# [13] = test system: SK-MEL-28
# [14] = test system: SW-620
# [15] = test system: MOLT-4
# [16] = test system: HCC 2998
# [17] = test system: BT-549
# [18] = test system: 786-0
# [19] = test system: U-251
# [20] = test system: SN12C
# [21] = test system: A498
# [22] = test system: RPMI-8226
# [23] = test system: UO-31
# [24] = test system: SK-MEL-2
# [25] = test system: MCF7
# [26] = test system: MDA-N
# [27] = test system: TK-10
# [28] = test system: CAKI-1
# [29] = test system: OVCAR-4
# [30] = test system: HCT-116
# [31] = test system: OVCAR-8
# [32] = test system: SF-539
# [33] = test system: DU-145
# [34] = test system: OVCAR-3
# [35] = test system: MDA-MB-231
# [36] = test system: RXF 393
# [37] = test system: NCI/ADR-RES
# [38] = test system: NCI-H522
# [39] = test system: HOP-62
# [40] = test system: IGROV-1
# [41] = test system: KM12
# [42] = test system: SK-OV-3
# [43] = test system: LOX IMVI
# [44] = test system: COLO 205
# [45] = test system: NCI-H460
# [46] = test system: K562
# [47] = test system: UACC-257
# [48] = test system: Hs-578T
# [49] = test system: SF-268
# [50] = test system: CCRF-CEM
# [51] = test system: OVCAR-5
# [52] = test system: HT-29
# [53] = test system: HL-60
# [54] = test system: NCI-H23
# [55] = test system: SK-MEL-5
# [56] = test system: EKVX
# [57] = test system: NCI-H226
# [58] = test system: HOP-92
# [59] = test system: Malme-3M
structure (smiles),measurement,setting,value
O=C1Nc2ccccc2/C1=N/Nc1ccccc1[N+](=O)[O-],GI50,[1],11.6 µM (inactive)
same,GI50,[2],56.9 µM (inactive)
same,GI50,[3],6.62 µM (inactive)
same,GI50,[4],57 µM (inactive)
same,GI50,[5],87.5 µM (inactive)
same,GI50,[6],55.5 µM
same,GI50,[7],48.5 µM (inactive)
same,GI50,[8],63.8 µM (inactive)
same,GI50,[9],> 100 µM (inactive)
same,GI50,[10],38.5 µM (inactive)
same,GI50,[11],34.4 µM (inactive)
same,GI50,[12],16.5 µM (inactive)
same,GI50,[13],75.9 µM (inactive)
same,GI50,[14],32.1 µM (inactive)
same,GI50,[15],51.4 µM (inactive)
same,GI50,[16],44.4 µM (inactive)
same,GI50,[17],49.1 µM (inactive)
same,GI50,[18],14.5 µM (inactive)
same,GI50,[19],15.5 µM (inactive)
same,GI50,[20],40.7 µM (inactive)
same,GI50,[21],32.8 µM (inactive)
same,GI50,[22],80.7 µM (inactive)
same,GI50,[23],24.3 µM (inactive)
same,GI50,[24],> 100 µM (inactive)
same,GI50,[25],> 100 µM (inactive)
same,GI50,[26],> 100 µM (inactive)
same,GI50,[27],69.2 µM (inactive)
same,GI50,[28],21.6 µM (inactive)
same,GI50,[29],25.5 µM (inactive)
same,GI50,[30],25.9 µM (inactive)
same,GI50,[31],23.3 µM (inactive)
same,GI50,[32],9.89 µM (inactive)
same,GI50,[33],33.6 µM (inactive)
same,GI50,[34],10.5 µM (inactive)
same,GI50,[35],28.4 µM (inactive)
same,GI50,[36],35.6 µM (inactive)
same,GI50,[37],17 µM (inactive)
same,GI50,[38],21.8 µM (inactive)
same,GI50,[39],19.3 µM (inactive)
same,GI50,[40],0.185 µM (active)
same,GI50,[41],33.8 µM (inactive)
same,GI50,[42],17.1 µM (inactive)
same,GI50,[43],36.4 µM (inactive)
same,GI50,[44],69.7 µM (inactive)
same,GI50,[45],19.9 µM (inactive)
same,GI50,[46],66.5 µM (inactive)
same,GI50,[47],56.1 µM (inactive)
same,GI50,[48],29.2 µM (inactive)
same,GI50,[49],10 µM (inactive)
same,GI50,[50],91.6 µM (inactive)
same,GI50,[51],38.3 µM (inactive)
same,GI50,[52],> 100 µM (inactive)
same,GI50,[53],> 100 µM (inactive)
same,GI50,[54],16.3 µM (inactive)
same,GI50,[55],40.9 µM (inactive)
same,GI50,[56],0.706 µM (active)
same,GI50,[57],1.67 µM (inactive)
CC1(c2cccs2)CC(c2cccs2)=C(C#N)C(=C(C#N)C#N)N1 (stereo not given),GI50,[1],17.5 µM (inactive)
same,GI50,[2],16.9 µM (inactive)
same,GI50,[3],18 µM (inactive)
same,GI50,[4],15.4 µM (inactive)
same,GI50,[5],20.4 µM (inactive)
same,GI50,[6],16.4 µM
same,GI50,[7],18.7 µM (inactive)
same,GI50,[8],15 µM (inactive)
same,GI50,[9],17.4 µM (inactive)
same,GI50,[10],16.6 µM (inactive)
same,GI50,[11],22 µM (inactive)
same,GI50,[12],18.8 µM (inactive)
same,GI50,[13],20.4 µM (inactive)
same,GI50,[14],11.4 µM (inactive)
same,GI50,[15],44.7 µM (inactive)
same,GI50,[16],15.9 µM (inactive)
same,GI50,[17],21.5 µM (inactive)
same,GI50,[18],17.3 µM (inactive)
same,GI50,[19],15.8 µM (inactive)
same,GI50,[20],18.7 µM (inactive)
same,GI50,[21],18.7 µM (inactive)
same,GI50,[22],17.5 µM (inactive)
same,GI50,[23],18.9 µM (inactive)
same,GI50,[24],17.8 µM (inactive)
same,GI50,[58],14.8 µM (inactive)
same,GI50,[25],18.5 µM (inactive)
same,GI50,[26],16.7 µM (inactive)
same,GI50,[27],21 µM (inactive)
same,GI50,[28],19.7 µM (inactive)
same,GI50,[29],16.4 µM (inactive)
same,GI50,[30],17.3 µM (inactive)
same,GI50,[31],17.3 µM (inactive)
same,GI50,[32],25.2 µM (inactive)
same,GI50,[59],19.2 µM (inactive)
same,GI50,[33],15.6 µM (inactive)
same,GI50,[34],16.3 µM (inactive)
same,GI50,[35],23.5 µM (inactive)
same,GI50,[36],18.3 µM (inactive)
same,GI50,[37],21.3 µM (inactive)
same,GI50,[39],19.9 µM (inactive)
same,GI50,[40],17.7 µM (inactive)
same,GI50,[41],17.1 µM (inactive)
same,GI50,[42],21.6 µM (inactive)
same,GI50,[43],16.1 µM (inactive)
same,GI50,[44],16.9 µM (inactive)
same,GI50,[45],20.2 µM (inactive)
same,GI50,[46],23 µM (inactive)
same,GI50,[47],17.6 µM (inactive)
same,GI50,[48],30.9 µM (inactive)
same,GI50,[49],18.2 µM (inactive)
same,GI50,[50],0.519 µM (active)
same,GI50,[51],21.5 µM (inactive)
same,GI50,[52],17.9 µM (inactive)
same,GI50,[53],10.1 µM (inactive)
same,GI50,[54],19.4 µM (inactive)
same,GI50,[55],14.6 µM (inactive)
same,GI50,[56],18.1 µM (inactive)
same,GI50,[57],22.3 µM (inactive)
